For 9 molecules, GI50 and TGI results are on record in PubChem BioAssay (NCI).

What all share (test): NCI tumour cell line growth inhibition, 48 h
Assay [1] concerns HCT-15 colon.
For assay [2], the system named is OVCAR-5 ovarian.
For assay [3], the system named is SK-MEL-5 melanoma.
The test system of assay [4] is BT-549 breast.
The test system of assay [5] is TK-10 renal.
Assay [6] relates to OVCAR-8 ovarian.
Assay [7] deals with OVCAR-4 ovarian.
In assay [8] the test system is SK-OV-3 ovarian.

“And” between values parts separate entries of the source, which are not always exact repeats. Equal values may be shown once.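 Compound exposure: 48 hours, 5 concentrations, 96-well plates. GI50 marks 50% less growth. TGI: concentration producing complete growth inhibition.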

Turning to `CCN(CC)CCCC(C)N/C(c1cccc(OC)c1)=c1\c(=O)[nH]n(-c2c3ccccc3nc3ccccc23)c(=O)\c1=C(/NC(C)CCCN(CC)CC)c1cccc(OC)c1` (configuration not stated), the GI50 in assay [1] is 1.02 µM; in assay [2], 1.79 µM; in assay [3], 1.7 µM; in assay [4], 2.15 µM; in assay [5], 2.58 µM; in assay [6], 0.937 µM. Besides, the GI50 in assay [7] was 1.22 µM; in assay [8], 2.23 µM. In addition, the TGI stood at 6.91 µM in assay [1]; 5.21 µM in assay [2]; 3.13 µM in assay [3]; 4.85 µM in assay [4]; 7.89 µM in assay [5]; 7.77 µM in assay [6]. The TGI stood at 4.11 µM in assay [7] and 7.2 µM in assay [8].
For `N#Cc1c(SCc2ccccc2)nc2[nH]c(=S)[nH]c(=S)c2c1-c1ccco1`, the GI50 in assay [1] is 27.6 µM; in assay [2], 66.4 µM; in assay [3] it was 23.9 µM; in assay [4], 21 µM; in assay [5], 15.2 µM; in assay [6] it was 67.9 µM. Besides, the GI50 in assay [7] and in assay [8] was more than 100 µM throughout. Besides, the TGI in assay [1] is more than 100 µM; in assay [2], more than 100 µM; in assay [3] it was more than 100 µM; in assay [4], more than 100 µM; in assay [5], 72.1 µM; in assay [6], more than 100 µM. Moreover, the TGI in assay [7] and in assay [8] was more than 100 µM in each case.
Regarding `CCSc1nc(=S)[nH]c2[nH]ncc12`, the GI50 is more than 100 µM in assay [1]; more than 100 µM in assay [2]; 59.1 µM in assay [3]; more than 100 µM in assay [4]; 88.9 µM in assay [5]; more than 100 µM in assay [6]. For the same molecule, the figures for the GI50 in assay [7] and in assay [8] were more than 100 µM and 78.9 µM, respectively. Moreover, the TGI in assay [1], in assay [2], in assay [3], in assay [4], in assay [5] and in assay [6] was more than 100 µM in each case. Besides, the TGI in assay [7] and in assay [8] was more than 100 µM in each case.
With `COc1ccc(C(=O)c2ccc(OC)cc2OC)cc1`, the GI50 in assay [1] is 3.66 µM; in assay [2] it was 8.79 µM; in assay [3] it was 2.06 µM; in assay [4] it was 4.06 µM; in assay [5], 5.01 µM; in assay [6] it was 4.55 µM. Also, the GI50 in assay [7] is 6.54 µM; in assay [8] it was 2.66 µM. The TGI was more than 100 µM in assay [1]; more than 100 µM in assay [2]; 5.32 µM in assay [3]; more than 100 µM in assay [4]; more than 100 µM in assay [5]; more than 100 µM in assay [6]. Further, the TGI was more than 100 µM in assay [7] and 8.81 µM in assay [8].
As for `CCN(CC)CCCN1C(=O)c2c(c(C)c3c(oc4cc(O)ccc43)c2C)C1=O`, the GI50 in assay [1] is 1.77 µM; in assay [2], 1.72 µM; in assay [3] it was 1.73 µM; in assay [4], 14.2 µM; in assay [5], 1.77 µM; in assay [6], 1.78 µM. For the same molecule, the GI50 in assay [7] is 1.84 µM; in assay [8] it was 1.73 µM. In addition, the TGI stood at 3.39 µM in assay [1]; 3.22 µM in assay [2]; 3.14 µM in assay [3]; 29.6 µM in assay [4]; 3.28 µM in assay [5]; 3.61 µM in assay [6]. Further, the TGI was 3.55 µM in assay [7] and 3.2 µM in assay [8].
Consider `Cc1cc(Nc2nc(N3CCOCC3)nc3ccccc23)n[nH]1`, for which the GI50 in assay [1] is 3.54 µM; in assay [2], 25.4 µM; in assay [3], 18.8 µM; in assay [4] it was 7.88 µM; in assay [5], 1.52 µM; in assay [6], 21.1 µM. In addition, the GI50 is 7.26 µM in assay [7] and 3.69 µM in assay [8]. Moreover, the TGI was more than 100 µM in assay [1]; more than 100 µM in assay [2]; more than 100 µM in assay [3]; 46.7 µM in assay [4]; 37.3 µM in assay [5]; more than 100 µM in assay [6]. The TGI in assay [7] is more than 100 µM; in assay [8], 40.9 µM.
As to `Cc1cc(-c2cc(C)c(O)c(C(C)(C)C)c2)cc(C(C)(C)C)c1O`, in assay [1], the GI50 was 5.13 µM and 10.8 µM. Also, the TGI in assay [1] is 18.1 µM and 23.5 µM; in assay [2], 24.4 µM and 28.4 µM; in assay [3], 22.3 µM and 28.2 µM; in assay [4], 27.6 µM and 26.5 µM; in assay [5], 24.5 µM and 23.2 µM; in assay [6] it was 31.5 µM and 26.1 µM. The TGI was 27.6 µM and 23.8 µM in assay [7]; 29.2 µM and 30.4 µM in assay [8].
In the case of `CC(=O)O[C@H]1C(=O)[C@@]2(C)[C@H]([C@H](OC(=O)c3ccccc3)[C@]3(O)C[C@H](OC(=O)[C@H](OC(=O)CCC(=O)OC4CCC(S/N=C(N)/N=C(\N)N(C)C)CC4)[C@@H](NC(=O)c4ccccc4)c4ccccc4)C(C)=C1C3(C)C)[C@]1(OC(C)=O)CO[C@@H]1C[C@@H]2O` (some centres not stated), the GI50 in assay [1] was 0.269 µM; in assay [2], 0.0272 µM; in assay [3] it was 0.0176 µM; in assay [4], 0.0219 µM; in assay [5], 0.0205 µM; in assay [6] it was 0.0221 µM. The GI50 in assay [7] was 0.0444 µM; in assay [8], 0.0144 µM. In addition, the TGI in assay [1] is more than 50 µM; in assay [2] it was more than 50 µM; in assay [3], 10.5 µM; in assay [4], more than 50 µM; in assay [5], 1.65 µM; in assay [6], more than 50 µM. In addition, the TGI in assay [7] and in assay [8] was more than 50 µM in each case.
With `Cc1c(N(C(=O)c2cc(-c3cc(Cl)ccc3C(=O)N3Cc4ccccc4C[C@H]3CN3CCOCC3)n(C)c2C)c2ccc(O)cc2)cc(C#N)n1C`, the GI50 in assay [1] was 16.6 µM; in assay [2], 44.9 µM; in assay [3], 14.6 µM; in assay [4] it was 6.41 µM; in assay [5], 12.8 µM; in assay [6] it was 55.8 µM. The GI50 is 11.4 µM in assay [7] and 17.9 µM in assay [8]. Also, the TGI in assay [1] is more than 100 µM; in assay [2], more than 100 µM; in assay [3], 36.9 µM; in assay [4] it was 26.5 µM; in assay [5], 78 µM; in assay [6] it was more than 100 µM. The TGI in assay [7] and in assay [8] was more than 100 µM each time.
